Data taken from US6939668B2, “Compositions and methods for treatment of lung transplants” (priority 2001, dated 2005).

Key:
Assay type in all cases: cell-based
B. cepacia [1] = assay: B. cepacia binding to normal human bronchial epithelial (NHBE) cells; conditions: for % Binding of control / % Inhibition: NHBE cells, mean of 4 experiments (range)
Method: Normal human bronchial epithelial (NHBE) cells were grown in 48 well plates. […] Unbound bacteria were removed by washing 6 times with PBS and the bound bacteria were desorbed in 1 ml of 0.5% triton X-100 and quantitated by dilution plating. Results are shown in Table 3 and represent the mean of 4 independent experiments and the values in parenthesis represent the range of experimental values.

[2] = tested on: B. cepacia ATCC 25416 (genomovar I); assay: microbe, parasite or virus in culture; design: inhibition: dose or concentration left out as unconfirmed
Method: (§1) B. cepacia (10^7-10^8 cfu) in 5 μl was added to the epithelial surface of tracheal explants, incubated for 2 h at 37° C. and gently washed with PBS 5 times to remove unbound bacteria.
(§2) Bound bacteria were desorbed with 0.25% triton X-100, serially diluted and plated on B. cepacia isolation agar, and incubated at 37° C. for 72 hours. Colonies were counted to calculate the number of bacteria bound per explant. When inhibitors were used, explants were incubated with inhibitors for 1 hour prior to the addition of bacteria.
(§3) Tracheal explants were preincubated for 1 hour with dextran 4K or 40K or xylitol. Bacteria (10^7 or 10^8 cfu) were then incubated for 2 hours with the tracheal explants and the number of bound bacteria per explant was determined as described above. Bacterial binding to explants preincubated with culture medium alone was considered as 0% inhibition (FIG. 1, each bar represents the mean of 14 to 17 independent experiments using trachea from 5 to 6 donors. Data were analyzed by the mixed model analysis of variance using MIXED procedure in SAS statistical software).
(§4) Explants were obtained from lungs removed from donors for transplantation. All lungs were preserved using LPD lung preservation solution (Perfadex®, Vitrolife, Gotenberg, Sweden) (Fischer et al. (2001), J. Thorac. Cardiovasc. Surg., v. 121, pp. 594-596). Segments of donor trachea that were trimmed off the lung before implantation were used in this study. Airway explants were prepared from donor tracheal segments, which were cut into approximately 4×4 mm^2 pieces, placed in transwells with the epithelial surface facing up and maintained in BEGM at an air/liquid interface for a maximum of 24 h at 37° C., 5% CO2. To evaluate the morphological status of the airway explants at this time, the explants were fixed in 10% buffered formalin and embedded in agar-paraffin. Five micron thick sections were stained with hematoxylin and eosin and examined under a light microscope (Leica, Scarborough, ON). • Effect of dextrans and xylitol on the viability of B. cepacia: B. cepacia (10^7 cfu) was suspended in BEGM containing 0, 2, 4, 6, 7 or 8% of dextran or xylitol for 2 h and then the number of viable bacteria was determined by colony counting method. • Binding of B. cepacia to airway explants: B. cepacia suspended in PBS (5 μl containing 10^8 cfu) was added in the center of the epithelial surface of airway explants and incubated for 2 h at 37° C., 5% CO2. The explants were washed gently 6 times with sterile PBS to remove unbound bacteria, and bound bacteria desorbed by incubating in 1 ml of 0.25% triton X-100 for 10 min at RT. Samples were serially diluted, and plated on B. cepacia isolation agar (Henry et al. (1997), J. Clin. Microbiol., v. 35, pp. 614-619). After 72 h of incubation at 37° C., bacterial colonies were counted to determine the number of bacteria (cfu) bound per explant.
(§5) In inhibition assays, epithelia of airway explants were pre-incubated with varying concentrations of potential inhibitors, dextran (4, 10 or 40 kDa) or xylitol for 1 h at 37° C., then bacteria were added and the assay continued as described above. Controls (no inhibitor added) in each experiment were set to a value of 100% binding, to calculate the % inhibition caused by inhibitors. Statistical analysis was carried out using Statsview and the unpaired student's t-test was used to calculate the p value. • Immunological detection of bound bacteria or mucin in airway explants: Paraffin sections of airway explants incubated with PBS or B. cepacia in presence or absence of inhibitors were deparaffinized, rehydrated and heated under pressure for 1.5 min in 10 mM citrate buffer pH 6.0 (Shi et al. (1991), J. Histochem. Cytochem., v. 39, pp. 741-748) to retrieve antigenic sites.

[3] = tested on: B. cepacia C5393 (genomovar II); assay: microbe, parasite or virus in culture; design: inhibition: dose or concentration left out as unconfirmed
Method: as §1, §2, §3, §4, §5

[4] = tested on: B. cepacia CEP040 (genomovar V); assay: microbe, parasite or virus in culture; design: inhibition: dose or concentration left out as unconfirmed
Method: as §1, §2, §3, §4, §5

[5] = tested on: B. cepacia FC473 (genomovar IV); assay: microbe, parasite or virus in culture; design: inhibition: dose or concentration left out as unconfirmed
Method: as §1, §2, §3, §4, §5

[6] = tested on: B. cepacia isolate BC7 (genomovar III); assay: microbe, parasite or virus in culture; design: inhibition: dose or concentration left out as unconfirmed; conditions: for Percent Inhibition of binding to tracheal explants: isolate BC7, genomovar III
Method: as §1, §2, §3, §4, §5

B. cepacia [7] = assay: Effect of dextrans and xylitol on the viability of B. cepacia; conditions: 60 to 80 mg/ml, 2 h, compared to BEGM alone
Method: as §4, with “To evaluate the morphological status of the airway explants at this time, the explants were fixed in 10% buffered formalin and embedded in agar-paraffin.” left out, “The explants were washed gently 6 times with sterile PBS to remove unbound bacteria, and bound bacteria desorbed by incubating in 1 ml of 0.25% triton X-100 for 10 min at RT. Samples were serially diluted, and plated on B. cepacia isolation agar (Henry et al. (1997), J. Clin. Microbiol., v. 35, pp. 614-619).” left out

[8] = Burkholderia cepacia, Epithelial cell, read-out: % Inhibition of B. cepacia isolates binding to tracheal epithelial cells

CC(=O)N[C@H]1[C@H](O[C@H]2[C@H](O)[C@@H](NC(C)=O)[C@H](O[C@H]3[C@H](O)[C@@H](NC(C)=O)C(O)O[C@@H]3CO)O[C@@H]2CO)O[C@H](CO)[C@@H](O[C@@H]2O[C@H](CO)[C@@H](O[C@@H]3O[C@H](CO)[C@@H](O[C@@H]4O[C@H](CO)[C@@H](O)[C@H](O)[C@H]4NC(C)=O)[C@H](O)[C@H]3NC(C)=O)[C@H](O)[C@H]2NC(C)=O)[C@@H]1O (stereo partly shown) [chitohexose]
inhibitory effect on binding of B. cepacia to NHBE cells (B. cepacia [1]; 0-100 μg/ml): None of these sugars inhibited the binding

CC(=O)N[C@@H]1[C@@H](O)[C@H](O[C@@H]2O[C@H](CO)[C@@H](O[C@@H]3O[C@H](CO)[C@@H](O[C@@H]4O[C@H](CO)[C@@H](O[C@@H]5O[C@H](CO)[C@@H](O)[C@H](O)[C@H]5NC(C)=O)[C@H](O)[C@H]4NC(C)=O)[C@H](O)[C@H]3NC(C)=O)[C@H](O)[C@H]2NC(C)=O)[C@@H](CO)O[C@H]1O [chitopentose]
inhibitory effect on binding of B. cepacia to NHBE cells (B. cepacia [1]; 0-100 μg/ml): None of these sugars inhibited the binding

OC[C@@H](O)[C@H](O)[C@@H](O)CO [Xylitol]
inhibition ([2]; Burkholderia cepacia, ATCC25416, Epithelial cell, read-out: % Inhibition of B. cepacia isolates binding to tracheal epithelial cells): 82 ± 1.29%
Percent Inhibition of binding to tracheal explants ([2]; isolate ATCC 25416, genomovar I, inhibitor 8%): 84%
inhibition [3, 8]: 70 ± 6.78%
Percent Inhibition of binding to tracheal explants ([3]; isolate C5393, genomovar II, inhibitor 8%): 68%
inhibition [4, 8]: 70 ± 6.75%
Percent Inhibition of binding to tracheal explants ([4]; isolate CEP040, genomovar V, inhibitor 8%): 64%
inhibition [5, 8]: 70 ± 3.26%
Percent Inhibition of binding to tracheal explants ([5]; isolate FC473, genomovar IV, inhibitor 7%): 72%
inhibition of binding of BC7 to airway explants (in words) ([6]; 60 to 80 mg/ml, p<0.005 compared to PBS treated controls, FIG. 4b): significantly inhibited the binding
inhibition [6, 8]: 58 ± 10.7%
inhibition at 80000 µg/mL ([6]; Burkholderia cepacia, read-out: inhibition of binding of B. cepacia isolate BC7 to airway explants): 67%
inhibition of B. cepacia BC7 binding to tracheal explants (in words) ([6]; Example 1, FIG. 1, 1 hour preincubation, p value <0.0001): effective in causing inhibition of bacterial binding
Percent Inhibition of binding to tracheal explants ([6]; inhibitor 7%): 76%
Percent Inhibition of binding to tracheal explants ([6]; inhibitor 8%): 81%
viability of B. cepacia (B. cepacia [7]): no change in viability
% Binding of control (B. cepacia [1]; xylitol 6%): 64 (29-105) %
% Inhibition (B. cepacia [1]; xylitol 6%): 36 (0-71) %
% Binding of control (B. cepacia [1]; xylitol 7%): 56 (54-58) %
% Inhibition (B. cepacia [1]; xylitol 7%): 44 (42-44) %
% Binding of control (B. cepacia [1]; xylitol 8%): 33 (23-43) %
% Inhibition (B. cepacia [1]; xylitol 8%): 67 (57-77) %
% Binding of control (B. cepacia [1]; xylitol 10%): 23 (18-29) %
% Inhibition (B. cepacia [1]; xylitol 10%): 77 (71-82) %

chitobiose
inhibitory effect on binding of B. cepacia to NHBE cells (B. cepacia [1]; 0-100 μg/ml): None of these sugars inhibited the binding

O=C[C@H](O)[C@@H](O)[C@@H](O)[C@H](O)CO [Galactose]
inhibitory effect on binding of B. cepacia to NHBE cells (B. cepacia [1]; 0 to 1.8%/ml): None of these sugars inhibited the binding

N[C@H]1[C@H](O[C@H]2[C@H](O)[C@@H](N)[C@H](O[C@H]3[C@H](O)[C@@H](N)[C@H](O[C@H]4[C@H](O)[C@@H](N)C(O)O[C@@H]4CO)O[C@@H]3CO)O[C@@H]2CO)O[C@H](CO)[C@@H](O)[C@@H]1O (stereo partly shown) [chitotetraose]
inhibitory effect on binding of B. cepacia to NHBE cells (B. cepacia [1]; 0-100 μg/ml): None of these sugars inhibited the binding
